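Compound exposure: 48 hours, 5 concentrations, 96-well plates. At the GI50, growth is halved.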 The source made the active and inactive calls. Cut-off read from the data, not from the text of the source: active = GI50 up to about 1.1 µM and inactive = higher. Where only a bound is given, the exact number is not on record here.

We go through eleven molecules from ChEMBL document CHEMBL1201862, “PubChem BioAssay data set” (2004).

Holding throughout (assay): growth of human tumour cells (NCI), 48 h
In experiment [1] the test system is A498.
For experiment [2], the system named is ACHN.
Experiment [3] concerns SF-295.
For experiment [4], the system named is NCI-H460.
Experiment [5] concerns OVCAR-5.
Experiment [6] has as its system 786-0.
Experiment [7] has as its system EKVX.
The subject of experiment [8] is SF-539.
For experiment [9], the system named is MDA-MB-231.
Experiment [10] deals with Hs-578T.
Experiment [11] deals with SN12C.
Experiment [12] has as its system CCRF-CEM.
Experiment [13] has as its system SW-620.
Experiment [14] deals with U-251.
The test system of experiment [15] is SNB-19.
Experiment [16] concerns RPMI-8226.
The test system of experiment [17] is K562.
For experiment [18], the system named is HCT-116.
The subject of experiment [19] is OVCAR-4.
In experiment [20] the test system is SNB-75.

For `CCOC(=O)/C(C(=S)NCc1ccccc1)=C(/N)N1CCCC1`, the GI50 in experiment [1], in experiment [2], in experiment [3], in experiment [4], in [5] and in experiment [6] was > 100 µM (inactive) in each case. In addition, the GI50 in [7], in experiment [8], in experiment [9], in [10], in experiment [11] and in experiment [12] was > 100 µM (inactive) each time. For the same molecule, the GI50 in [13], in experiment [14], in experiment [15], in experiment [16], in [17] and in experiment [18] was > 100 µM (inactive) throughout. The GI50 in [19] is > 100 µM (inactive).
Regarding `CC(=O)O[C@@H](c1nccn1Cc1ccccc1)[C@H]1OC(C)(C)O[C@@H]1[C@H]1COC(C)(C)O1`, the GI50 in experiment [1], in experiment [2], in experiment [3], in experiment [4], in [5] and in experiment [20] was > 100 µM (inactive) in each case. The GI50 in experiment [6], in experiment [7], in experiment [8], in experiment [9], in experiment [10] and in experiment [11] was > 100 µM (inactive) throughout. The GI50 in experiment [12], in experiment [13], in experiment [14], in experiment [16], in experiment [17] and in experiment [18] was > 100 µM (inactive) each time. Besides, the GI50 in experiment [19] is > 100 µM (inactive).
`C=CC(C)(C)c1cc([C@@H]2COc3cc(O)ccc3C2=O)c(O)c(OC)c1OC`: the GI50 in [1] is 16.9 µM (inactive); in experiment [2], 16.2 µM (inactive); in experiment [3], 12.2 µM (inactive); in experiment [4], 17.4 µM (inactive); in experiment [5] it was 17.1 µM (inactive); in [20], 4.63 µM (inactive). For the same molecule, the GI50 in experiment [6] was 16 µM (inactive); in [7], 12.1 µM (inactive); in [8], 18.8 µM (inactive); in experiment [9], 13.5 µM (inactive); in [10], 16.4 µM (inactive); in [11], 16.3 µM (inactive). Besides, the GI50 was 16.6 µM (inactive) in [12]; 31.6 µM (inactive) in [13]; 13.5 µM (inactive) in experiment [14]; 13.5 µM (inactive) in experiment [15]; 9.66 µM (inactive) in [17]; 11.8 µM (inactive) in [18]. In experiment [19], the GI50 is 3.94 µM (inactive).
`COc1ccc(/C=C2\N=C3NC(=O)C(N4CCOCC4)=C(N)N3C2=O)cc1`: the GI50 in experiment [1] was > 100 µM (inactive); in [2], 75.9 µM (inactive); in experiment [3] it was 59.7 µM (inactive); in experiment [5] it was > 100 µM (inactive); in experiment [20], 24.8 µM (inactive); in experiment [6], 53 µM (inactive). Besides, the GI50 in experiment [7] was 69.7 µM (inactive); in experiment [8] it was > 100 µM (inactive); in experiment [9], > 100 µM (inactive); in [10], 35.7 µM (inactive); in experiment [11], > 100 µM (inactive); in experiment [12], > 100 µM (inactive). The GI50 in [13] is > 100 µM (inactive); in experiment [14] it was 53.7 µM (inactive); in experiment [15], 96.8 µM (inactive); in experiment [16], > 100 µM (inactive); in experiment [17], 6.7 µM (inactive); in experiment [18] it was > 100 µM (inactive). In [19], the GI50 was 31.8 µM (inactive).
As for `COC(=O)C1=C(N)C2=C(N)Oc3ccccc3C2CC1=C(C#N)C#N` (stereo not given), the GI50 is 25.8 µM (inactive) in experiment [1]; 24.5 µM (inactive) in experiment [2]; 25 µM (inactive) in experiment [3]; 27.9 µM (inactive) in experiment [5]; 18 µM (inactive) in [20]; 30.9 µM (inactive) in experiment [6]. Moreover, the GI50 in [7] was 29.1 µM (inactive); in experiment [8], 43.6 µM (inactive); in [9] it was 17.5 µM (inactive); in experiment [10], 27.9 µM (inactive); in experiment [11], 29 µM (inactive); in experiment [12] it was 24.2 µM (inactive). Besides, the GI50 in [13] was 33.7 µM (inactive); in experiment [14], 35.5 µM (inactive); in experiment [15], 18.6 µM (inactive); in experiment [16], 19.1 µM (inactive); in experiment [17] it was 19.6 µM (inactive); in experiment [18], 23.5 µM (inactive). Also, in experiment [19], the GI50 is 30.2 µM (inactive).
On to `CN1CCN(Cn2nc(COc3ccccc3Cl)n(/N=C/c3ccc(-c4ccc(Cl)cc4Cl)o3)c2=S)CC1`, for which the GI50 in experiment [1] is 19.1 µM (inactive); in experiment [3], 27.4 µM (inactive); in [4], 22.1 µM (inactive); in experiment [5], 35.6 µM (inactive); in experiment [6], 18.6 µM (inactive); in [7], 39.4 µM (inactive). For the same molecule, the GI50 in experiment [8] is 27 µM (inactive); in [9], 26.4 µM (inactive); in experiment [10] it was 84.1 µM (inactive); in [12], 25.6 µM (inactive); in experiment [13] it was 16.1 µM (inactive); in [14] it was 19.3 µM (inactive). For the same molecule, the GI50 is 29.2 µM (inactive) in experiment [16], 21.3 µM (inactive) in experiment [17], 18.5 µM (inactive) in [18] and 20 µM (inactive) in experiment [19].
In the case of `Cc1ccc2c(c1)C(=O)c1ccc(C)nc1C2=O`, the GI50 was > 100 µM (inactive) in experiment [1]; 35.7 µM (inactive) in experiment [2]; 24.6 µM (inactive) in experiment [3]; > 100 µM (inactive) in experiment [5]; 42.4 µM (inactive) in experiment [20]; 85.9 µM (inactive) in [6]. Besides, the GI50 is 40.7 µM (inactive) in experiment [7]; 23 µM (inactive) in experiment [8]; 3.98 µM (inactive) in [9]; > 100 µM (inactive) in [10]; 20.4 µM (inactive) in experiment [11]; 58.7 µM (inactive) in experiment [12]. The GI50 is 27.9 µM (inactive) in experiment [13]; 32.4 µM (inactive) in experiment [14]; 22.2 µM (inactive) in experiment [15]; 43.3 µM (inactive) in experiment [16]; 48.4 µM (inactive) in [17]; 19.1 µM (inactive) in experiment [18]. Also, the GI50 in experiment [19] was 27.7 µM (inactive).
Consider `C=CCN1C(=O)/C(=C\c2cc(C(C)(C)C)c(O)c(C(C)(C)C)c2)NC1=S`, for which the GI50 in experiment [1] is 25.2 µM (inactive); in experiment [2], 26.5 µM (inactive); in [3], 21.2 µM (inactive); in [4], 15.3 µM (inactive); in [5], 31.3 µM (inactive); in experiment [6], 20.8 µM (inactive). Further, the GI50 was 19.9 µM (inactive) in experiment [7]; 39.5 µM (inactive) in experiment [8]; 15.9 µM (inactive) in [9]; 48.2 µM (inactive) in experiment [10]; 23.1 µM (inactive) in experiment [11]; 0.879 µM (active) in [12]. Moreover, the GI50 in experiment [13] was 20.6 µM (inactive); in experiment [14], 14.3 µM (inactive); in experiment [15] it was 41.9 µM (inactive); in experiment [16], 7.87 µM (inactive); in experiment [17], 19.9 µM (inactive); in [18], 12.7 µM (inactive). Also, in experiment [19], the GI50 is 19.3 µM (inactive).
As to `CCOC1=C(c2ccccc2)N2CCCCC2O1` (stereo not given), the GI50 in experiment [1] is 8.73 µM (inactive); in experiment [2], 4.68 µM (inactive); in experiment [3], 3.26 µM (inactive); in [4] it was 3.39 µM (inactive); in [5], 3.94 µM (inactive); in experiment [20] it was 2.83 µM (inactive). Moreover, the GI50 was 4.55 µM (inactive) in experiment [6]; 5.19 µM (inactive) in [7]; 9.29 µM (inactive) in experiment [8]; 3.61 µM (inactive) in experiment [9]; 6.12 µM (inactive) in [10]; 8.85 µM (inactive) in [11]. Besides, the GI50 in experiment [12] was 2.94 µM (inactive); in [13], 4.21 µM (inactive); in [14], 3.35 µM (inactive); in experiment [15], 3.76 µM (inactive); in experiment [16] it was 1.5 µM (inactive); in experiment [17], 2.03 µM (inactive). In addition, the GI50 in experiment [18] is 2.88 µM (inactive).
For the molecule `COc1cc(Nc2nnc3n2S(=O)(=O)c2cc(C)c(Cl)cc2S3)cc(OC)c1`, the GI50 in experiment [1] is 19.1 µM (inactive); in [2] it was 5.21 µM (inactive); in experiment [3] it was 21.5 µM (inactive); in experiment [4] it was 23.8 µM (inactive); in [5], 62.2 µM (inactive); in [6], 4.22 µM (inactive). Moreover, the GI50 in experiment [7] is 15.4 µM (inactive); in [8] it was 2.12 µM (inactive); in [9], 19.9 µM (inactive); in experiment [10], 14.2 µM (inactive); in experiment [11], 24.8 µM (inactive); in experiment [12], 4.29 µM (inactive). For the same molecule, the GI50 in experiment [14] is 10.9 µM (inactive); in [15], 13.3 µM (inactive); in [16], 2.87 µM (inactive); in experiment [17], 13.2 µM (inactive); in experiment [18] it was 14 µM (inactive); in experiment [19], 4.3 µM (inactive).
As to `COc1cc(O)c2c(c1)C(=O)c1cc3c(c(O)c1C2=O)C(OC1OC(C)C(OC)C(O)C1OC)C(OC)C(C)(O)C3=O` (stereo not given), the GI50 in [1] is 5.53 µM (inactive); in experiment [2], 2.14 µM (inactive); in [3], 4.73 µM (inactive); in [4] it was 2.72 µM (inactive); in experiment [5], 16.1 µM (inactive); in experiment [20], 4.15 µM (inactive). The GI50 in [6] was 5.28 µM (inactive); in [7], 3.37 µM (inactive); in experiment [8], 3.92 µM (inactive); in experiment [9] it was 4.44 µM (inactive); in experiment [10], 8.47 µM (inactive); in experiment [12], 4.1 µM (inactive). Also, the GI50 is 3.6 µM (inactive) in [13]; 5.33 µM (inactive) in experiment [14]; 6.53 µM (inactive) in experiment [15]; 1.29 µM (inactive) in experiment [16]; 3.58 µM (inactive) in [17]; 2.81 µM (inactive) in [18]. Moreover, the GI50 in experiment [19] was 4.03 µM (inactive).
